# System: K98450-129-R-PDC multicell spheroids, viability
# Test: Anticancer human tumor K98450-129-R-PDC patient-derived colon adenocarcinoma cell line growth inhibition [PI3K]
# Settings: for IC50: curve of first compound; for viability, T/C: stronger effect = lower value
# Source text: Combinatorial screen of targeted agents with the PI3K inhibitors inavolisib, alpelisib, duvelisib, and copanlisib in multi-cell type tumor spheroids
# A high-throughput screen of multi-cell type tumor spheroids was designed to identify active combinations of targeted small molecules and PI3K pathway inhibitors. Complex spheroids include a stromal component modeled by human endothelial cells (HUVEC) and fibroblasts modeled by human mesenchymal stem cells (MSCs). The concentration ranges selected for each drug and investigational agent were based upon clinically achievable concentrations if the clinical Cmax of the agent was known.
# Compounds. The drugs and investigational agents: inavolisib (NSC800729), alpelisib (NSC765974), duvelisib (NSC772469), copanlisib (NSC816437), ipatasertib (NSC767898), afuresertib (NSC778305), talazoparib (NSC767125), sapanisertib (NSC764658), selumetinib (NSC741078), tovorafenib (DAY101, NSC766906), vemurafenib (NSC761431), ravoxertinib (NSC781343), sotorasib (NSC818433), MRTX1133 (NSC 836407), abemaciclib (NSC 768073), palbociclib (NSC758247), venetoclax (NSC 766270), SY5609 (NSC837396), enzalutamide (NSC755605), and darolutamide (NSC825331), were obtained from the National Cancer Institute (NCI) Developmental Therapeutics Program Chemical Repository. The FDA-approved anticancer drug set is available from the NCI Developmental Therapeutics Program. […] The stock solutions were prepared in dimethyl sulfoxide (DMSO, Sigma-Aldrich, St. Louis, MO, cat. D2650) at 800-fold the tested concentration and stored at -70 degrees C prior to their use. All drugs and investigational agents were tested over a range starting from a high concentration at or near the clinical Cmax and decreasing in half-log increments. If the clinical Cmax for an agent had not been determined, the highest concentration tested was 10 microM.
# Cell Culture. All cells were maintained in an incubator at 37 degrees C and 5% CO2 with 95% humidity. The PDC lines were cultured according to standard operating procedures established by the NCI PDMR (https://pdmr.cancer.gov/sops/default.htm). All PDCs were thawed and cultured in Matrigel-coated flasks prepared with a working solution of 1X Ham's F-12 nutrient mix, without supplementation (Invitrogen, Waltham, MA, cat. 11765054), 100 U/mL penicillin-streptomycin (Invitrogen, cat. 15140122), and 2.5% Matrigel (Corning Inc., Corning, NY, cat. 354248) for the first three passages. The 354836-022-R-J1-PDC, 475296-252-R-J1-PDC, and 997726-040-R-J2-PDC lines were cultured in 6A media, which includes advanced DMEM/F-12 (Thermo Fisher Scientific, cat. 12634028), 10 mM HEPES (Thermo Fisher Scientific, cat. 15630080), 1X GlutaMAX supplement (Thermo Fisher Scientific, cat. 35050061), 0.1 mg/mL primocin (InvivoGen, San Diego, CA, cat. ant-pm-2), 10% defined fetal bovine serum, heat inactivated (HyClone Laboratories Inc., Logan, UT, cat. SH30070.03HI), 50% L-WRN conditioned media (ATCC, cat. CRL-3276), 1.25 mM N-Acetyl-L-cysteine (Sigma-Aldrich, cat. A9165), 10 mM nicotinamide (Sigma-Aldrich, cat. N0636), 1X B-27 supplement (Thermo Fisher Scientific, cat. 17504044), 1X N-2 supplement (Thermo Fisher Scientific, cat. 17502048), and 10 microM Y-27632 dihydrochloride (Tocris Bioscience, Bristol, United Kingdom, cat. 1254). The 624824-186-R-J2-PDC line was cultured in 6C/Colon 1B media, which includes all 6A media components plus 50 ng/mL human EGF recombinant protein (Thermo Fisher Scientific, cat. PHG0311). […]
# [1] = second compound 0.00316 µM, first compound 0.0316 µM
# [2] = second compound 0.00316 µM, first compound 0.1 µM
# [3] = second compound 0.01 µM, first compound 0.0316 µM
# [4] = second compound 0.01 µM, first compound 0.1 µM
# [5] = second compound 0.0316 µM, first compound 0.0316 µM
# [6] = second compound 0.0316 µM, first compound 0.1 µM
# [7] = second compound 0.1 µM, first compound 0.0316 µM
# [8] = second compound 0.1 µM, first compound 0.1 µM
# [9] = second compound 0.316 µM, first compound 0.0316 µM
# [10] = second compound 0.316 µM, first compound 0.1 µM
# [11] = second compound 1 µM, first compound 0.0316 µM
# [12] = second compound 1 µM, first compound 0.1 µM
# 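Note: spheroids exposed to agents for seven days before read-out.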
smiles,measurement,setting,value
CC(C)n1nc(-c2ccc3oc(N)nc3c2)c2c(N)ncnc21 + CC(Nc1ccc2c(c1)OCCn1cc(N3C(=O)OCC3C(F)F)nc1-2)C(N)=O,IC50,second compound 0.00316 µM,> 0.1 µM
same,IC50,second compound 0.01 µM,> 0.1 µM
same,IC50,second compound 0.0316 µM,> 0.1 µM
same,IC50,second compound 0.1 µM,> 0.1 µM
same,IC50,second compound 0.316 µM,> 0.1 µM
same,IC50,second compound 1 µM,> 0.1 µM
same,"viability, T/C","second compound 0.00316 µM, first compound 0.000316 µM",106%
same,"viability, T/C","second compound 0.00316 µM, first compound 0.001 µM",93.9%
same,"viability, T/C","second compound 0.00316 µM, first compound 0.00316 µM",97.1%
same,"viability, T/C","second compound 0.00316 µM, first compound 0.01 µM",94.7%
same,"viability, T/C",[1],90.3%
same,"viability, T/C",[2],78.8%
same,"viability, T/C","second compound 0.01 µM, first compound 0.000316 µM",115%
same,"viability, T/C","second compound 0.01 µM, first compound 0.001 µM",100%
same,"viability, T/C","second compound 0.01 µM, first compound 0.00316 µM",103%
same,"viability, T/C","second compound 0.01 µM, first compound 0.01 µM",91.1%
same,"viability, T/C",[3],96.1%
same,"viability, T/C",[4],77.2%
same,"viability, T/C","second compound 0.0316 µM, first compound 0.000316 µM",99%
same,"viability, T/C","second compound 0.0316 µM, first compound 0.001 µM",98.9%
same,"viability, T/C","second compound 0.0316 µM, first compound 0.00316 µM",99.4%
same,"viability, T/C","second compound 0.0316 µM, first compound 0.01 µM",94.5%
same,"viability, T/C",[5],96.5%
same,"viability, T/C",[6],74%
same,"viability, T/C","second compound 0.1 µM, first compound 0.000316 µM",100%
same,"viability, T/C","second compound 0.1 µM, first compound 0.001 µM",102%
same,"viability, T/C","second compound 0.1 µM, first compound 0.00316 µM",95.4%
same,"viability, T/C","second compound 0.1 µM, first compound 0.01 µM",91.3%
same,"viability, T/C",[7],93.1%
same,"viability, T/C",[8],71.5%
same,"viability, T/C","second compound 0.316 µM, first compound 0.000316 µM",93.1%
same,"viability, T/C","second compound 0.316 µM, first compound 0.001 µM",93.2%
same,"viability, T/C","second compound 0.316 µM, first compound 0.00316 µM",99.7%
same,"viability, T/C","second compound 0.316 µM, first compound 0.01 µM",88.2%
same,"viability, T/C",[9],79.1%
same,"viability, T/C",[10],77.7%
same,"viability, T/C","second compound 1 µM, first compound 0.000316 µM",87.2%
same,"viability, T/C","second compound 1 µM, first compound 0.001 µM",89.7%
same,"viability, T/C","second compound 1 µM, first compound 0.00316 µM",81.3%
same,"viability, T/C","second compound 1 µM, first compound 0.01 µM",82.2%
same,"viability, T/C",[11],80.9%
same,"viability, T/C",[12],67.1%
CC1(C)CCC(CN2CCN(c3ccc(C(=O)NS(=O)(=O)c4ccc(NCC5CCOCC5)c([N+](=O)[O-])c4)c(Oc4cnc5[nH]ccc5c4)c3)CC2)=C(c2ccc(Cl)cc2)C1 + CC(Nc1ccc2c(c1)OCCn1cc(N3C(=O)OCC3C(F)F)nc1-2)C(N)=O,IC50,second compound 0.00316 µM,5.72 µM
same,IC50,second compound 0.01 µM,5.95 µM
same,IC50,second compound 0.0316 µM,5.96 µM
same,IC50,second compound 0.1 µM,5.68 µM
same,IC50,second compound 0.316 µM,5.6 µM
same,IC50,second compound 1 µM,5.38 µM
same,"viability, T/C",[1],105%
same,"viability, T/C",[2],105%
same,"viability, T/C","second compound 0.00316 µM, first compound 0.316 µM",99.9%
same,"viability, T/C","second compound 0.00316 µM, first compound 1 µM",103%
same,"viability, T/C","second compound 0.00316 µM, first compound 3.16 µM",96.5%
same,"viability, T/C","second compound 0.00316 µM, first compound 10 µM",6.21%
same,"viability, T/C",[3],111%
same,"viability, T/C",[4],98.7%
same,"viability, T/C","second compound 0.01 µM, first compound 0.316 µM",109%
same,"viability, T/C","second compound 0.01 µM, first compound 1 µM",104%
same,"viability, T/C","second compound 0.01 µM, first compound 3.16 µM",103%
same,"viability, T/C","second compound 0.01 µM, first compound 10 µM",6.45%
same,"viability, T/C",[5],106%
same,"viability, T/C",[6],107%
same,"viability, T/C","second compound 0.0316 µM, first compound 0.316 µM",106%
same,"viability, T/C","second compound 0.0316 µM, first compound 1 µM",99.6%
same,"viability, T/C","second compound 0.0316 µM, first compound 3.16 µM",99.8%
same,"viability, T/C","second compound 0.0316 µM, first compound 10 µM",9.42%
same,"viability, T/C",[7],98.2%
same,"viability, T/C",[8],104%
same,"viability, T/C","second compound 0.1 µM, first compound 0.316 µM",103%
same,"viability, T/C","second compound 0.1 µM, first compound 1 µM",102%
same,"viability, T/C","second compound 0.1 µM, first compound 3.16 µM",95.2%
same,"viability, T/C","second compound 0.1 µM, first compound 10 µM",6.43%
same,"viability, T/C",[9],97.9%
same,"viability, T/C",[10],92.8%
same,"viability, T/C","second compound 0.316 µM, first compound 0.316 µM",101%
same,"viability, T/C","second compound 0.316 µM, first compound 1 µM",85.3%
same,"viability, T/C","second compound 0.316 µM, first compound 3.16 µM",96.3%
same,"viability, T/C","second compound 0.316 µM, first compound 10 µM",4.55%
same,"viability, T/C",[11],86.6%
same,"viability, T/C",[12],88.1%
same,"viability, T/C","second compound 1 µM, first compound 0.316 µM",89.8%
same,"viability, T/C","second compound 1 µM, first compound 1 µM",90.2%
same,"viability, T/C","second compound 1 µM, first compound 3.16 µM",85.2%
same,"viability, T/C","second compound 1 µM, first compound 10 µM",8.82%
